Experimental data as given in patent US9567302B2, “Carbamate compounds and of making and using same” (Abide Therapeutics, Inc., priority 2012, dated 2017).

Columns and labels:
hMAGL = target: T1, hMAGL (Homo sapiens, UniProt Q99685); assay: Competitive ABPP with human MAGL recombinantly expressed in HEK293T cells; type: biochemical; details: Table 1; hMAGL-HEK293T cell lysates
T1 construct: expressed in transfected cells; host or cells: HEK293T
T1 sequence (Q99685 1-303): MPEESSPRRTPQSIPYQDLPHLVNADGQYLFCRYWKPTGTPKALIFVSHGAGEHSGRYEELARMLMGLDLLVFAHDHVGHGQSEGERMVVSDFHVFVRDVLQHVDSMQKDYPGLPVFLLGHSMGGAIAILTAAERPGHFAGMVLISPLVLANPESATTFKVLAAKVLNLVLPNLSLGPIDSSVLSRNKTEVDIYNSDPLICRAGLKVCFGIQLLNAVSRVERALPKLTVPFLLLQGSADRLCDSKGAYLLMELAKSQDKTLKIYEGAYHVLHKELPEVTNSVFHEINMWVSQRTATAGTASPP
Procedure: (§1) Proteomes (mouse brain membrane fraction or cell lysates) (50 μL, 1.0 mg/ml total protein concentration) were preincubated with varying concentrations of inhibitors at 37° C. After 30 min, FP-Rh (1.0 μL, 50 μM in DMSO) was added and the mixture was incubated for another 30 min at 37° C. Reactions were quenched with SDS loading buffer (50 μL—4×) and run on SDS-PAGE.
Recombinant Expression of Human MAGL in HEK293T Cells.
Cell lysates were diluted with mock proteomes for use in competitive ABPP experiments.

MAGL [1] = target: T2, MAGL (Mus musculus, UniProt O35678); assay: In vitro competitive activity-based protein profiling (FP-Rh), mouse MAGL; type: biochemical; parameters: from tissue; host or cells: mouse brain membrane fraction; details: 30 min preincubation at 37° C.
T2 sequence (O35678 1-303): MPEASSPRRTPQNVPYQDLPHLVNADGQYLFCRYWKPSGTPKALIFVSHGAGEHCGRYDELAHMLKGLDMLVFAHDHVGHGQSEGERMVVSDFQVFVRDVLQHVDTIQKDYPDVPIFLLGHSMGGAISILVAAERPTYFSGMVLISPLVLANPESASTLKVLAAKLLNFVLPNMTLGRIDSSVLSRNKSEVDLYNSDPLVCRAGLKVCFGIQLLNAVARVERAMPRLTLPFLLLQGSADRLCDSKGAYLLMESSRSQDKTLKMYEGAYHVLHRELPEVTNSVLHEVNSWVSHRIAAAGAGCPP
Procedure: (§2) In Vitro Competitive Activity-Based Protein Profiling.
as §1

FAAH = target: T3, FAAH (Mus musculus, UniProt O08914); assay: In vitro competitive activity-based protein profiling (FP-Rh), mouse FAAH; type: biochemical; parameters: from tissue; host or cells: mouse brain membrane fraction; details: 30 min preincubation at 37° C.
T3 sequence (O08914 1-579): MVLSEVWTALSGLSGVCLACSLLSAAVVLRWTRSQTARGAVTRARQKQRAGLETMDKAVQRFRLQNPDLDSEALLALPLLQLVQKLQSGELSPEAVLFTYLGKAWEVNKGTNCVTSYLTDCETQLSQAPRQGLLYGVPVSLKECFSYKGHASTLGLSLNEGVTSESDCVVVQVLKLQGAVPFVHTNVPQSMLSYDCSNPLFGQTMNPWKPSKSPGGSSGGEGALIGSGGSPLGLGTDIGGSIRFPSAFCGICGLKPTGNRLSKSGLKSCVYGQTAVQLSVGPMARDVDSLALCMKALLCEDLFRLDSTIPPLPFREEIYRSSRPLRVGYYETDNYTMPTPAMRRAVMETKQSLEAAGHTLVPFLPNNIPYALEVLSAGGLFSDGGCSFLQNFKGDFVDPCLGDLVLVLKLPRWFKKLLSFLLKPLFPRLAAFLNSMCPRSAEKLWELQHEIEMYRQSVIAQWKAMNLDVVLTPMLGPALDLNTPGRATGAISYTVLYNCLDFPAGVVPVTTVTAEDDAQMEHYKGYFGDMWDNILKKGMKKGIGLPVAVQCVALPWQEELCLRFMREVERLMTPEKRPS
Procedure: as §2, §1

ABHD6 = target: T4, ABHD6 (Mus musculus, UniProt Q8R2Y0); assay: In vitro competitive activity-based protein profiling (FP-Rh), mouse ABHD6; type: biochemical; parameters: from tissue; host or cells: mouse brain membrane fraction; details: 30 min preincubation at 37° C.
T4 sequence (Q8R2Y0 1-336): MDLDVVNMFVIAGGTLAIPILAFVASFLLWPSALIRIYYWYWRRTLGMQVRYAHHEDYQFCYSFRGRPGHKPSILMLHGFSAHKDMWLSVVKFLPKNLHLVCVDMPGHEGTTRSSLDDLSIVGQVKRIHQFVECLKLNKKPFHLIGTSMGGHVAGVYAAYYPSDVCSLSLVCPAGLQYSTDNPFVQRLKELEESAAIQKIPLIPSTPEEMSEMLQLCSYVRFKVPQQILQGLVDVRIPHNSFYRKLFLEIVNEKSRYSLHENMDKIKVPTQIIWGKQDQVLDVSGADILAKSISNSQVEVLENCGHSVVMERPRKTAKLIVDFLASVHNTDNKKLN
Procedure: as §2, §1

MAGL [2] = target: T2, MAGL; assay: Mouse brain MAGL inhibition in proteomes from inhibitor treated mice (oral gavage); type: in vivo; parameters: from tissue; host or cells: mouse brain membrane fraction; details: p.o., C57Bl/6J mice, brain proteome 4 h following administration
Procedure: as §1
Preparation of Mouse Brain Proteomes from Inhibitor Treated Mice.
Inhibitors were administered to wild-type C57B1/6J by oral gavage in a vehicle of polyethylene glycol.

| SMILES | IC50 (hMAGL) [nM] | IC50 (MAGL [1]; Table 1, mouse proteome) [nM] | IC50 (FAAH; Table 1, mouse proteome) [nM] | IC50 (ABHD6; Table 1, mouse proteome) [nM] | inhibition at 20 mg/kg (MAGL [2]) [%] | IC50 (MAGL [1]; Table 2, mouse proteome) [nM] | IC50 (FAAH; Table 2, mouse proteome) [nM] | IC50 (ABHD6; Table 2, mouse proteome) [nM] | inhibition at 5 mg/kg (MAGL [2]) [%] |
| --- | --- | --- | --- | --- | --- | --- | --- | --- | --- |
| O=C(ON1C(=O)CCC1=O)N1CCC(C(O)(c2ccc3c(c2)OCO3)c2ccc3c(c2)OCO3)CC1 [Example 1, 2,5-Dioxopyrrolidin-1-yl 4-(bis(benzo[d][1,3]dioxol-5 yl)(hydroxy)methyl)piperidine-1-carboxylate] | < 100 | < 100 | > 10000 | 100 to 1000 | 75 | – | – | – | – |
| O=C(ON1C(=O)CCC1=O)N1CCN(C(c2ccc(Br)cc2)c2ccc(Br)cc2)CC1 [Example 3, 2,5-Dioxopyrrolidin-1-yl 4-[bis(4-bromophenyl)methyl]piperazine-1-carboxylate] | < 100 | < 100 | > 10000 | 100 to 1000 | > 95 | – | – | – | – |
| COc1ccc(N2CCN(C(=O)ON3C(=O)CCC3=O)CC2)cc1 [Example 5, 2,5-Dioxopyrrolidin-1-yl 4-(4-methoxyphenyl)piperazine-1-carboxylate] | 1000 to 10000 | 1000 to 10000 | > 10000 | 1000 to 10000 | – | – | – | – | – |
| O=C(ON1C(=O)CCC1=O)N1CCN(Cc2cccc(Oc3ccccc3)c2)CC1 [Example 7, 2,5-Dioxopyrrolidin-1-yl 4-[(3-phenoxyphenyl)methyl]piperazine-1-carboxylate] | < 100 | < 100 | 1000 to 10000 | < 100 | – | – | – | – | – |
| O=C(CN1CCN(C(=O)ON2C(=O)CCC2=O)CC1)Nc1cc(C(F)(F)F)ccc1Cl [Example 36, 2,5-Dioxopyrrolidin-1-yl 4-(2-((2-chloro-5-(trifluoromethyl)phenyl)amino)-2-oxoethyl)piperazine-1-carboxylate] | < 100 | < 100 | 1000 to 10000 | 1000 to 10000 | – | – | – | – | – |
| O=C(ON1C(=O)CNC1=O)N1CCN(C(c2ccc(Cl)cc2)c2ccc(Cl)cc2)CC1 [Example 46, 2,5-Dioxoimidazolidin-1-yl 4-(bis(4-chlorophenyl)methyl)piperazine-1-carboxylate] | – | < 100 | > 10000 | 100 to 1000 | > 95 | – | – | – | – |
| O=C(ON1C(=O)CCC1=O)N1CCN(Cc2ccc(C(F)(F)F)cc2N2CCCC2)CC1 [Example 105, 2,5-Dioxopyrrolidin-1-yl 4-{[2-(pyrrolidin-1-yl)-4-(trifluoromethyl)phenyl]methyl}piperazine-1-carboxylate] | – | – | – | – | – | < 100 | > 10000 | 1000 to 10000 | 75 |
| Cc1c(CN2CCN(C(=O)ON3C(=O)CCC3=O)CC2)cccc1N1CCCCC1 [Example 122, 2,5-Dioxopyrrolidin-1-yl 4-(2-methyl-3-(piperidin-1-yl)benzyl)piperazine-1-carboxylate] | – | – | – | – | – | < 100 | > 10000 | 100 to 1000 | 100 |

Second part, the molecule after the results:

| IC50 (hMAGL) [nM] | IC50 (MAGL [1]; Table 1, mouse proteome) [nM] | IC50 (FAAH; Table 1, mouse proteome) [nM] | IC50 (ABHD6; Table 1, mouse proteome) [nM] | inhibition at 20 mg/kg (MAGL [2]) [%] | IC50 (MAGL [1]; Table 2, mouse proteome) [nM] | IC50 (FAAH; Table 2, mouse proteome) [nM] | IC50 (ABHD6; Table 2, mouse proteome) [nM] | inhibition at 5 mg/kg (MAGL [2]) [%] | SMILES |
| --- | --- | --- | --- | --- | --- | --- | --- | --- | --- |
| < 100 | < 100 | 100 to 1000 | < 100 | – | – | – | – | – | O=C(ON1C(=O)CCC1=O)N1CCC(CCc2ccc(Cl)cc2)CC1 [Example 8, 2,5-Dioxopyrrolidin-1-yl 4-[2-(4-chlorophenyl)ethyl]piperidine-1-carboxylate] |
| < 100 | < 100 | 1000 to 10000 | < 100 | – | – | – | – | – | O=C(ON1C(=O)CCC1=O)N1CCN(Cc2ccccc2Oc2ccccc2)CC1 [Example 35, 2,5-Dioxopyrrolidin-1-yl 4-[(2-phenoxyphenyl)methyl]piperazine-1-carboxylate] |
| < 100 | < 100 | 1000 to 10000 | 100 to 1000 | – | – | – | – | – | O=C(ON1C(=O)CCC1=O)N1CCN(Cc2ccc(Br)cc2Oc2ccccc2)CC1 [Example 37, 2,5-Dioxopyrrolidin-1-yl 4-[(4-bromo-2-phenoxyphenyl)methyl]piperazine-1-carboxylate] |
| – | < 100 | > 10000 | 100 to 1000 | > 95 | – | – | – | – | CC1CC(=O)N(OC(=O)N2CCN(C(c3ccc(Cl)cc3)c3ccc(Cl)cc3)CC2)C1=O (centres unmarked) [Example 41, 3-Methyl-2,5-dioxopyrrolidin-1-yl 4-(bis(4-chlorophenyl)methyl)piperazine-1-carboxylate] |
